{"source": "patent US20240197729A1", "about": "“ALK-5 Inhibitors and Uses Thereof” (Sumitomo Pharma Oncology, Inc., priority 2021, published 2024)", "key": {"[1]": {"system": "p-SMAD2 (Ser465/Ser467)", "experiment": "Longitudinal PK/PD analysis of p-SMAD2 in A549 xenograft mouse model", "format": "in vivo, mice", "settings": "for percent p-SMAD2 levels compared to vehicle group: 50 mg/kg per oral gavage, normalized to GAPDH; for time of peak p-SMAD2 suppression post dosing / drug tumor and plasma exposure in vivo: single dose 50 mg/kg per oral gavage; for drug tumor and plasma exposure in vivo: A549 xenograft mice", "protocol": "Accordingly, a longitudinal, twenty-two-hour, one-dose study was performed using Compound 04 and the commercially available ALK5 inhibitor vactosertib in an A549 xenograft mouse model. In this study, p-SMAD2 (Ser465/Ser467) and a housekeeping gene (GAPDH) were measured at ten timepoints from zero (established using vehicle-treated animals) up to twenty-two hours post dose for a single drug dose of fifty milligrams per kilogram per subject (three subjects per dosing group).\nFor this study, xenografts were prepared and implanted in mice as follows. At five weeks of age, female athymic nude mice (purchased from Charles River) were injected with approximately 2.1 million A549 cells (ATCC, CCL-185). Cells were harvested and resuspended in plain RPMI media (no phenol red added) and Matrigel (Corning 356237) at a one to one ratio, and two hundred-microliters of the cell suspension were injected into the right hind flank of each mouse. Tumors were measured every three days by caliper, and as tumors reached an average of seventy-eighty millimeters cubed, mice were randomized in groups of three subjects. Each of the test compounds (vactosertib, Compound 04) was resuspended in 1-methyl-2-pyrrolidinone (Sigma, 494496) (10%) plus 20% Solutol (Sigma 42966) in water (90%). The drug suspensions were sonicated for fifteen minutes to generate a fine particle suspension before being given to the test subjects. Subjects were dosed (per oral gavage) with the suspension. A vehicle control group with three mice was used to establish the baseline and timepoint zero of phospho-SMAD-2 in the tumor xenograft. The test compounds were administered to the respective subject groups at fifty milligrams per kilogram.\nSamples were obtained post administration of test compounds at 30 minutes, one hour, two hours, four hours, six hours, eight hours, twelve hours, sixteen hours and twenty-two hours. Tumors were harvested, snap frozen and stored at negative eighty degrees Celsius until further processing. Plasma was collected from all animals by collecting whole blood via cardiac puncture, followed by centrifugation in tubes containing EDTA (BD, microtainer tubes, 365974). A group of three mice receiving vehicle only served as the zero timepoint for both drug groups. The phospho SMAD-2 levels were determined using the Bio-Plex Pro™ Phospho-Smad2 (Ser465/Ser467) Set (BioRad 171V50019M). The phospho SMAD-2 levels were normalized to GAPDH (MILLIPLEX MAP GAPDH Total Magnetic Bead MAPmate™, Millipore 46-667MAG) levels from each sample. All analytes were analyzed in a multiplex fashion with the Bio-Plex Pro Cell Signaling Reagent Kit (BioRad 171304006M). Frozen tumor samples (fifteen to thirty milligrams) were lysed in 100 μl lysis buffer, processed in a bead mill tube, and centrifuged. The resulting lysate was used at 1:50 dilution for the assay according to the manufacturer's instructions. Bead suspension was analyzed using the Luminex system (MAGPIX).\nThe study described in Example 8 was expanded to include Compound 01. Accordingly, using the same procedure for preparing test subjects and the ability of compounds tested to suppress TGF-beta signaling over time (as described in Example 8), a longitudinal, twenty-two-hour, one-dose study was performed using Compound 01, and the data were plotted alongside data obtained in Example 8 from Compound 04 and commercially available ALK5 inhibitor vactosertib, which were replotted in accordance with Example 10. For this expansion of the longitudinal study, p-SMAD2 (Ser465/Ser467) and housekeeping gene GAPDH were measured at ten timepoints from zero up to twenty-two hours post a single drug dose of fifty milligrams per kilogram per animal (three animals per group). A vehicle only treatment group of three mice was used to establish the baseline levels of p-SMAD2 in A549 xenograft tumor samples.\nAs in Example 8, xenografts were prepared and implanted in mice as follows. […]"}, "[2]": {"system": "SMAD signaling triggered by myostatin", "experiment": "Myostatin-triggered SMAD signaling in RDSR cells", "format": "cell-based", "settings": "Homo sapiens, 50 ng/ml myostatin, 24 h", "protocol": "To determine the ability of compounds to inhibit the SMAD signaling triggered by myostatin, and therefore possibly help alleviate cachexia in cancer patients, the following assay was performed. The RD cell line, a human rhabdomyosarcoma cell line, was purchased from ATCC (CCL-136) and a stably SMAD reporter plasmid (Promega, pGL4.48[luc2P/SBE/Hygro]) was introduced to create the RD SMAD Reporter (RDSR) cell line. Twenty thousand RDSR cells were seeded into a 96-well plate (Greiner bio-one 655083) in DMEM media supplemented with 10% fetal bovine serum. Cells were pre-incubated with selected compounds at various concentrations (8-point curve ranging from 10 micromolar to 610 picomolar) for one hour, then were stimulated with 50 nanograms per milliliter myostatin (R&D, 788-G8-010) for twenty-four hours. The luciferase signal was then read out with One-Glo substrate on the Envision plate reader."}}, "note": "pIC50: −log10 of the molar value. “Also recorded” adds a separate entry of the source.", "data": [{"molecule": "Cc1nn(CC(F)(F)F)cc1Nc1cc(Nc2cnnc3c(C)cccc23)ccn1", "note": "[Compound 01, N2-[3-methyl-1-(2,2,2-trifluoroethyl)-1H-pyrazol-4-yl]-N4-(8-methylcinnolin-4-yl)pyridine-2,4-diamine]", "values": [{"measurement": "percent p-SMAD2 levels compared to vehicle group", "setting": "[1]; 0.5 h post dosing", "value": 57, "unit": "%"}, {"measurement": "percent p-SMAD2 levels compared to vehicle group", "setting": "[1]; 1 h post dosing", "value": 37, "unit": "%"}, {"measurement": "percent p-SMAD2 levels compared to vehicle group", "setting": "[1]; 2 h post dosing", "value": 24, "unit": "%"}, {"measurement": "percent p-SMAD2 levels compared to vehicle group", "setting": "[1]; 4 h post dosing", "value": 30, "unit": "%"}, {"measurement": "percent p-SMAD2 levels compared to vehicle group", "setting": "[1]; 6 h post dosing", "value": 59, "unit": "%"}, {"measurement": "percent p-SMAD2 levels compared to vehicle group", "setting": "[1]; 8 h post dosing", "value": 76, "unit": "%"}, {"measurement": "percent p-SMAD2 levels compared to vehicle group", "setting": "[1]; 12 h post dosing", "value": 89.2, "unit": "%"}, {"measurement": "percent p-SMAD2 levels compared to vehicle group", "setting": "[1]; 16 h post dosing", "value": 82.1, "unit": "%"}, {"measurement": "percent p-SMAD2 levels compared to vehicle group", "setting": "[1]; 22 h post dosing", "value": 86.5, "unit": "%"}, {"measurement": "time of peak p-SMAD2 suppression post dosing", "setting": "[1]", "value": 2, "unit": "h"}, {"measurement": "drug tumor and plasma exposure in vivo", "setting": "[1]", "value": "longer drug tumor and plasma exposure in vivo"}, {"measurement": "pIC50", "setting": "[2]", "value": 7.24}]}, {"molecule": "Clc1cccc2c(Nc3ccnc(Nc4cccc(N5CCOCC5)c4)c3)cnnc12", "note": "[Compound 04, N4-(8-chlorocinnolin-4-yl)-N2-[3-(morpholin-4-yl)phenyl]pyridine-2,4-diamine]", "values": [{"measurement": "percent p-SMAD2 levels compared to vehicle group", "setting": "[1]; 0.5 h post dosing", "value": 55, "unit": "%"}, {"measurement": "percent p-SMAD2 levels compared to vehicle group", "setting": "[1]; 1 h post dosing", "value": 24, "unit": "%"}, {"measurement": "percent p-SMAD2 levels compared to vehicle group", "setting": "[1]; 4 h post dosing", "value": 14, "unit": "%"}, {"measurement": "percent p-SMAD2 levels compared to vehicle group", "setting": "[1]; 6 h post dosing", "value": 22, "unit": "%"}, {"measurement": "percent p-SMAD2 levels compared to vehicle group", "setting": "[1]; 8 h post dosing", "value": 57, "unit": "%"}, {"measurement": "percent p-SMAD2 levels compared to vehicle group", "setting": "[1]; 12 h post dosing", "value": 95.0, "unit": "%"}, {"measurement": "percent p-SMAD2 levels compared to vehicle group", "setting": "[1]; 16 h post dosing", "value": 81.9, "unit": "%"}, {"measurement": "percent p-SMAD2 levels compared to vehicle group", "setting": "[1]; 22 h post dosing", "value": 91.4, "unit": "%"}, {"measurement": "time of peak p-SMAD2 suppression post dosing", "setting": "[1]", "value": "two"}, {"measurement": "drug tumor and plasma exposure in vivo", "setting": "[1]; 50 mg/kg", "value": "longer drug tumor and plasma exposure in vivo than vactosertib"}, {"measurement": "drug tumor and plasma exposure in vivo", "setting": "[1]; listed as compound 04, 50 mg/kg", "value": "longer drug tumor and plasma exposure in vivo"}, {"measurement": "pIC50", "setting": "[2]", "value": 7.72}]}, {"molecule": "Cc1cccc(-c2[nH]c(CNc3ccccc3F)nc2-c2ccc3ncnn3c2)n1", "note": "[Vactosertib, vactosertib, reference compound]", "values": [{"measurement": "percent p-SMAD2 levels compared to vehicle group", "setting": "[1]; 0.5 h post dosing", "value": 53, "unit": "%"}, {"measurement": "percent p-SMAD2 levels compared to vehicle group", "setting": "[1]; 1 h post dosing", "value": 14, "unit": "%"}, {"measurement": "percent p-SMAD2 levels compared to vehicle group", "setting": "[1]; 2 h post dosing", "value": 21, "unit": "%"}, {"measurement": "percent p-SMAD2 levels compared to vehicle group", "setting": "[1]; 4 h post dosing", "value": 32, "unit": "%"}, {"measurement": "percent p-SMAD2 levels compared to vehicle group", "setting": "[1]; 6 h post dosing", "value": 67, "unit": "%"}, {"measurement": "percent p-SMAD2 levels compared to vehicle group", "setting": "[1]; 8 h post dosing", "value": 65, "unit": "%"}, {"measurement": "percent p-SMAD2 levels compared to vehicle group", "setting": "[1]; 12 h post dosing", "value": 89.1, "unit": "%"}, {"measurement": "percent p-SMAD2 levels compared to vehicle group", "setting": "[1]; 16 h post dosing", "value": 74.6, "unit": "%"}, {"measurement": "percent p-SMAD2 levels compared to vehicle group", "setting": "[1]; 22 h post dosing", "value": 101.1, "unit": "%"}, {"measurement": "drug tumor and plasma exposure in vivo", "setting": "[1]; 50 mg/kg", "value": "quickly cleared from the system; also recorded: quickly cleared from the mice"}, {"measurement": "pIC50", "setting": "[2]", "value": 7.79}]}]}
